Results published in patent US9060971B2, “Combination pharmaceutical agents as inhibitors of HCV replication” (Enanta Pharmaceuticals, Inc., priority 2010, dated 2015).

System: HCV 1b genotype replicon
Experiment: HCV replicon drug screening assay (quantitative RT-PCR or luciferase), genotype 1b
Type: cell-based
Settings: Hepatitis C virus, read-out: Genotype-1b replicon EC50 Range
Excerpt: HCV replicon cell lines (kindly provided by R. Bartenschlager) isolated from colonies as described by Lohman et. al. (Lohman et al. (1999) Science 285: 110-113, expressly incorporated by reference in its entirety) and used for all experiments. The HCV replicon has the nucleic acid sequence set forth in EMBL Accession No.: AJ242651, the coding sequence of which is from nucleotides 1801 to 8406.
The coding sequence of the published HCV replicon was synthesized and subsequently assembled in a modified plasmid pBR322 (Promega, Madison, Wis.) using standard molecular biology techniques. One replicon cell line (“SGR 11-7”) stably expresses HCV replicon RNA which consists of (i) the HCV 5′UTR fused to the first 12 amino acids of the capsid protein, (ii) the neomycin phosphotransferase gene (neo), (iii) the IRES from encephalomyocarditis virus (EMCV), and (iv) HCV NS2 to NS5B genes and the HCV 3′UTR. Another replicon cell line (“Huh-luc/neo-ET”) described by Vrolijk et. al. (Vrolijk et. al. (2003) Journal of Virological Methods 110:201-209, expressly incorporated by reference in its entirety) stably expresses HCV replicon RNA which consists of (i) the HCV 5′UTR fused to the first 12 amino acids of the capsid protein, (ii) the firefly luciferase reporter gene, (iii) the ubiquitin gene, (iv) the neomycin phosphotransferase gene (neo), (v) the IRES from encephalomyocarditis virus (EMCV), and (vi) HCV NS3 to NS5B genes that harbor cell culture adaptive mutations (E1202G, T12801, K1846T) and the HCV 3′UTR.
These cell lines are maintained at 37° C., 5% CO2, 100% relative humidity in DMEM (Cat#11965-084, Invitrogen), with 10% fetal calf serum (“FCS”, Invitrogen), 1% non-essential amino acids (Invitrogen), 1% of Glutamax (Invitrogen), 1% of 100× penicillin/streptomycin (Cat#15140-122, Invitrogen) and Geneticin (Cat#10131-027, Invitrogen) at 0.75 mg/ml or 0.5 mg/ml for 11-7 and Huh-luc/neo-ET cells, respectively.
EC50 values of single agent compounds and combinations were determined by HCV RNA detection using quantitative RT-PCR, according to the manufacturer's instructions, with a TAQMAN® One-Step RT-PCR Master Mix Reagents Kit (Cat#AB 4309169, Applied Biosystems) on an ABI Model 7500 thermocycler. The TaqMan primers to use for detecting and quantifying HCV RNA are 5′-GCTGCGGCCTGTCGAGCT-3′ (SEQ ID NO: 1), 5′-CAAGGTCGTCTCCGCATAC-3′ (SEQ ID NO: 2) and the probe 5′-FAM-[…]-BHQ-3′ (SEQ ID NO: 3) obtained from Integrated DNA Technologies. HCV RNA is normalized to GAPDH RNA levels in drug-treated cells, which is detected and quantified using the Human GAPDH Endogenous Control Mix (Applied Biosystems, AB 4310884E). Total cellular RNA is purified from 96-well plates using the RNAqueous 96 kit (Ambion, Cat#AM1812). Chemical agent cytotoxicity was evaluated using an MTS assay according to the manufacturer's directions (Promega).
The compounds described herein can be effective against the HCV 1b genotype. It should also be understood that the compounds can inhibit multiple genotypes of HCV. In one embodiment, compounds of Formula (I) are active against the 1a, 1b, 2a, 2b, 3a, 4a, and 5a genotypes. […] The EC50 ranges were classified into the following groups: A>10 nM; B 1-10 nM; C<1 nM. The potential cytotoxicities of each agent were analyzed in parallel by MTS assay and are greater than 3 uM for all agents.

SMILES	EC50 [nM]
COC(=O)N[C@@H](C(=O)N1CCC[C@H]1c1ncc(C(=O)Nc2ccc(NC(=O)c3cnc([C@@H]4CCCN4C(=O)[C@H](NC(=O)OC)c4ccccc4)[nH]3)cc2)[nH]1)c1ccccc1 [Compound 121]	1 to 10

Same assay, conditions: Hepatitis C virus; HCV 1b genotype replicon; quantitative RT-PCR or luciferase assay; read-out: Genotype-1b replicon EC50 Range

SMILES	EC50 [nM]
COC(=O)N[C@H](C(=O)N1CCC[C@H]1c1nc2cc(C#Cc3ccc(-c4c[nH]c([C@@H]5CCCN5C(=O)[C@@H](NC(C)=O)C(C)C)n4)cc3)ccc2[nH]1)C(C)C [Compound 86]	< 1
COC(=O)N[C@H](C(=O)N1CCC[C@H]1c1nc2cc(C#Cc3ccc(-c4c[nH]c([C@@H]5CCCN5C(=O)[C@@H](c5ccccc5)C(C)C)n4)cc3)ccc2[nH]1)C(C)C [Compound 87]	< 1
COC(=O)N[C@H](C(=O)N1CCC[C@H]1c1nc2cc(C#Cc3ccc(-c4c[nH]c([C@@H]5CCCN5C(=O)[C@H](NC(=O)OC)C(C)C)n4)cc3)ccc2[nH]1)C(C)C [Compound 88]	< 1
COC(=O)N[C@H](C(=O)N1CCC[C@H]1c1nc(-c2ccc(C#Cc3ccc4[nH]c([C@@H]5CCCN5C(=O)[C@@H](NC(=O)OC)C(C)C)nc4c3)cc2)c[nH]1)c1ccccc1 [Compound 89]	< 1
COC(=O)N[C@H](C(=O)N1CCC[C@H]1c1nc(-c2ccc(C#Cc3ccc4[nH]c([C@@H]5C[C@@H](O)CN5C(=O)[C@@H](NC(=O)OC)C(C)C)nc4c3)cc2)c[nH]1)C(C)C [Compound 91]	< 1
COC(=O)N[C@H](C(=O)N1CCC[C@H]1c1nc(-c2ccc(C#Cc3ccc4[nH]c([C@@H]5CC(F)(F)CN5C(=O)[C@@H](NC(=O)OC)C(C)C)nc4c3)cc2)c[nH]1)C(C)C [Compound 92]	< 1
COC(=O)N[C@H](C(=O)N1CC2(CC2)C[C@H]1c1nc(-c2ccc(C#Cc3ccc4[nH]c([C@@H]5CCCN5C(=O)[C@@H](NC(=O)OC)C(C)C)nc4c3)cc2)c[nH]1)C(C)C [Compound 94]	< 1
CC[C@H](C)[C@H](NC(=O)OC)C(=O)N1CCC[C@H]1c1ncc(-c2ccc(C#Cc3ccc4nc([C@@H]5CCCN5C(=O)[C@@H](NC(=O)OC)[C@@H](C)CC)[nH]c4c3)cc2)[nH]1 [Compound 96]	< 1
COC(=O)N[C@H](C(=O)N1CCC[C@H]1c1ncc(-c2ccc(C#Cc3ccc4nc([C@@H]5CCCN5C(=O)[C@@H](NC(=O)OC)[C@@H](C)O)[nH]c4c3)cc2)[nH]1)[C@@H](C)O [Compound 97]	< 1
COC(=O)N[C@H](C(=O)N1CCC[C@H]1c1ncc(-c2ccc(C#Cc3ccc4nc([C@@H]5CCCN5C(=O)[C@@H](NC(=O)OC)C5CC5)[nH]c4c3)cc2)[nH]1)C(C)C [Compound 98]	< 1
COC(=O)N[C@H](C(=O)N1CCC[C@H]1c1ncc(-c2ccc(C#Cc3ccc4nc([C@@H]5CCCN5C(=O)[C@@H](NC(=O)OC)C(C)(C)C)[nH]c4c3)cc2)[nH]1)C(C)C [Compound 99]	< 1
COC(=O)N[C@H](C(=O)N1CCC[C@H]1c1ncc(-c2ccc(C#Cc3ccc4nc([C@@H]5CCCN5C(=O)[C@@H](NC(=O)OC)C(C)(C)O)[nH]c4c3)cc2)[nH]1)C(C)C [Compound 100]	< 1
COC(=O)N[C@H](C(=O)N1CCC[C@H]1c1ncc(-c2ccc(C#Cc3ccc4nc([C@@H]5CCCN5C(=O)[C@@H](NC(=O)OC)[C@H](C)O)[nH]c4c3)cc2)[nH]1)C(C)C [Compound 101]	< 1
CCC(NC(=O)OC)(C(=O)N1CCC[C@H]1c1nc2ccc(C#Cc3ccc(-c4cnc([C@@H]5CCCN5C(=O)[C@@H](NC(=O)OC)C(C)C)[nH]4)cc3)cc2[nH]1)c1ccccc1 (some centres unmarked) [Compound 102]	< 1
COC(=O)N[C@@H](C(=O)N1CCC[C@H]1c1nc2ccc(C#Cc3ccc(-c4cnc([C@@H]5CCCN5C(=O)[C@H](NC(=O)OC)c5ccccc5)o4)cc3)cc2[nH]1)c1ccccc1 [Compound 103]	< 1
COC(=O)N[C@@H](C(=O)N1CCC[C@H]1c1nc2ccc(CCc3ccc(-c4cnc([C@@H]5CCCN5C(=O)[C@H](NC(=O)OC)c5ccccc5)o4)cc3)cc2[nH]1)c1ccccc1 [Compound 104]	< 1

SMILES	EC50 [nM]
COC(=O)N[C@H](C(=O)N1C[C@H](O)C[C@H]1c1ncc(-c2ccc(C#Cc3ccc4nc([C@@H]5CCCN5C(=O)[C@@H](NC(=O)OC)C(C)C)[nH]c4c3)cc2)[nH]1)C(C)C [Compound 105]	< 1
COC(=O)N[C@H](C(=O)N1CCC[C@H]1c1ncc(-c2ccc(C#Cc3ccc4nc([C@@H]5C[C@@H](F)CN5C(=O)[C@@H](NC(=O)OC)C(C)C)[nH]c4c3)cc2)[nH]1)C(C)C [Compound 106]	< 1
COC(=O)N[C@H](C(=O)N1CCC[C@H]1c1ncc(-c2ccc(C#Cc3ccc4nc([C@@H]5C[C@H]6C[C@H]6N5C(=O)[C@@H](NC(=O)OC)C(C)C)[nH]c4c3)cc2)[nH]1)C(C)C [Compound 107]	< 1
COC(=O)N[C@H](C(=O)N1CCC[C@H]1c1ncc(-c2ccc(C#Cc3ccc4nc([C@@H]5CC[C@H](C)N5C(=O)[C@@H](NC(=O)OC)C(C)C)[nH]c4c3)cc2)[nH]1)C(C)C [Compound 108]	< 1
COC(=O)N[C@H](C(=O)N1CCC[C@H]1c1ncc(-c2ccc(C#Cc3ccc4nc([C@@H]5C[C@H](F)CN5C(=O)[C@@H](NC(=O)OC)C(C)C)[nH]c4c3)cc2)[nH]1)C(C)C [Compound 109]	< 1
COC(=O)N[C@H](C(=O)N1CCC[C@H]1c1ncc(-c2ccc(C#Cc3cc4[nH]c([C@@H]5CCCN5C(=O)[C@@H](NC(=O)OC)C(C)C)nc4cc3OC)cc2)[nH]1)C(C)C [Compound 110]	< 1
COC(=O)N[C@@H](C(=O)N1CCC[C@H]1c1nc2cc(-c3ccc(-c4cnc5[nH]c([C@@H]6CCCN6C(=O)[C@H](NC(=O)OC)c6ccccc6)nc5c4)cc3)cnc2[nH]1)c1ccccc1 [Compound 112]	< 1
COC(=O)N[C@H](C(=O)N1CCC[C@H]1c1nc(-c2ccc(C#Cc3ccc4[nH]c([C@@H]5CCCN5C(=O)[C@@H](NC(=O)OC)C(C)C)nc4n3)cc2)c[nH]1)C(C)C [Compound 113]	< 1
COC(=O)N[C@H](C(=O)N1CCC[C@H]1c1nc(-c2ccc3cc(-c4ccc5[nH]c([C@@H]6CCCN6C(=O)[C@@H](NC(=O)OC)C(C)C)nc5n4)ccc3c2)c[nH]1)C(C)C [Compound 114]	< 1
COC(=O)N[C@@H](C(=O)N1CCC[C@H]1c1cc2cc(C#Cc3ccc(-c4c[nH]c([C@@H]5CCCN5C(=O)[C@H](NC(=O)OC)c5ccccc5)n4)cc3)ccc2[nH]1)c1ccccc1 [Compound 116]	< 1
C=C1C[C@@H](c2nc3cc(C#Cc4ccc(-c5c[nH]c([C@@H]6CCCN6C(=O)[C@@H](NC(=O)OC)C(C)C)n5)cc4)ccc3[nH]2)N(C(=O)[C@@H](NC(=O)OC)C(C)C)C1 [Compound 117]	< 1
C=C1C[C@@H](c2nc(-c3ccc(C#Cc4ccc5[nH]c([C@@H]6CCCN6C(=O)[C@@H](NC(=O)OC)C(C)C)nc5c4)cc3)c[nH]2)N(C(=O)[C@@H](NC(=O)OC)C(C)C)C1 [Compound 118]	< 1
C=C1C[C@@H](c2nc(-c3ccc(C#Cc4ccc5[nH]c([C@@H]6CC(=C)CN6C(=O)[C@@H](NC(=O)OC)C(C)C)nc5c4)cc3)c[nH]2)N(C(=O)[C@@H](NC(=O)OC)C(C)C)C1 [Compound 119]	< 1
COC(=O)N[C@@H](C(=O)N1CCC[C@H]1c1ncc(C(=O)N[C@H]2CC[C@H](NC(=O)c3cnc([C@@H]4CCCN4C(=O)[C@H](NC(=O)OC)c4ccccc4)[nH]3)CC2)[nH]1)c1ccccc1 [Compound 120]	> 10
COC(=O)N[C@H](C(=O)N1CCC[C@H]1c1nc2cc(C#Cc3ccc(-c4c[nH]c(C5[C@H]6CC[C@H](C6)N5C(=O)[C@@H](NC(=O)OC)C(C)C)n4)cc3)ccc2[nH]1)C(C)C (some centres unmarked) [Compound 122]	< 1
